Test results: patent publication US20230144023A1, “USE OF BUTYLPHTHALIDE AND DERIVATIVE THEREOF” (CSPC NBP PHARMACEUTICAL CO., LTD, priority 2020, published 2023)

How the values were obtained:
Test in all cases: In vitro tumor cell proliferation, MTT (Example 5)
Assay type in all cases: cell-based
[1] = system: A375; settings: Homo sapiens, A-375, 30 μM NBP alone, 72 h, read-out: Inhibition rate
Description: (§1) This experiment includes a monotherapy group of ab-PTX, a combined therapy group (ab-PTX/NBP), and an NBP group. Different drug concentration gradients were set for each group.
(§2) ab-PTX/NBP group: the final concentration of NBP was 30 μM, and the concentration gradient of ab-PTX was the same as that of the monotherapy group.
(§3) Monotherapy group of NBP: NBP was 2× serially diluted from an initial concentration of 480 μM to 8 concentrations: 480, 240, 120, 60, 30, 15, 7.5, and 3.75 μM, respectively.
(§4) The action time of the drug was 72 h.
(§5) 24 h after adherence, 100 μL of the culture solution containing different concentration gradients of ab-PTX was added to each well of the monotherapy group of ab-PTX; 100 μL of the culture solution containing different concentration gradients of ab-PTX and 30 μM NBP was added to each well of the combined therapy group of ab-PTX/NBP; 100 μL of the culture solution containing different concentration gradients of NBP was added to each well of the monotherapy group of NBP; 3 repeated wells were provided for each concentration of each drug, and the blank wells (only culture medium was present) and the normal wells (drug concentration was 0) were provided.
(§6) The experiment was repeated three times, and the IC50 value was expressed as the mean±SD of the results of the 3 experiments.

[2] = system: HT29; settings: Homo sapiens, HT-29, 30 μM NBP alone, 72 h, read-out: Inhibition rate
Description: as §1, §2, §3, §4, §5, §6

[3] = system: JIMT-1; settings: Homo sapiens, 30 μM NBP alone, 72 h, read-out: Inhibition rate
Description: as §1, §2, §3, §4, §5, §6

Compound CCCCC1OC(=O)c2ccccc21 (stereo not drawn) [NBP, 3-n-butylphthalide] has an inhibition at 30 µM [1] of 10.9 ± 0.57%, an inhibition at 30 µM [2] of 10.1 ± 7.94% and an inhibition at 30 µM [3] of 7.39 ± 13.2%.
